Experimental data as given in patent US10222368B2 (priority 2012, dated 2019).

What was measured:
[1] = molecular target: T1, TLR4-FLNA complexes (Mus musculus, UniProt Q8BTM8); test: AD transgenic mouse oral treatment, lymphocyte anti-FLNA immunoprecipitation / Western blot; type: in vivo; details: 30 mg/kg C0105 orally for 2 months; AD transgenic mice from age 4 and 8 months
T1 construct: measuring α7nAChR and TLR4 contents in anti-FLNA immunoprecipitate by Western blotting; endogenous in cells; host or cells: trunk-blood lymphocytes of E129 and tau/APP695sw/PS1 transgenic mice
Method: (§1) FIG. 19, in five panels as FIG. 19A and FIG. 19B, FIG. 19C, FIG. 19D and FIG. 19E, illustrate the effects of oral administration of 30 mg/kg of Compound C0105 for a period of two months to E129 mice and AD transgenic (tau/APP695sw(-9E0/PS1) mice beginning at the ages of 4 and 8 months. Mice were sacrificed, and their brains extracted/dissected to confirm pathologies. Trunk blood was collected and lymphocyte lysate preparations were analyzed for levels of α7nAChR and FLNA as well as TLR4 and FLNA by measuring α7nAChR and TLR4 contents in anti-FLNA immunoprecipitates by Western blotting and visualization with FITC. Data are expressed as the ratios of optical intensities of α7nAChR to FLNA (FIGS. 19B and 19C) and TLR4 to FLNA (FIGS. 19D and 19E). n=5. […]
(§2) To assess the C0105's AD treatment efficacy, E129 mice and AD transgenic (tau/APP695sw(-9E)/PS1) mice at age of 4-months (minimal plaque pathologies) and 8-months (established plaque pathologies) were treated orally with 30 mg/kg of C0105 for 2 months. […] The protein bands were detected using a chemiluminescent method, visualized by exposure to x-ray film and quantified by densitometric scan.
(§3) The data were expressed as the ratios of optical intensities of α7nAChR to FLNA and TLR4 to FLNA. […]

[2] = molecular target: T2, α7nAChR-FLNA complexes (Mus musculus, UniProt Q8BTM8); test: as above; type: in vivo; details: 30 mg/kg C0105 orally for 2 months; AD transgenic mice from age 4 and 8 months
T2 construct: measuring α7nAChR and TLR4 contents in anti-FLNA immunoprecipitate by Western blotting; endogenous in cells; host or cells: trunk-blood lymphocytes of E129 and tau/APP695sw/PS1 transgenic mice
Method: as §1, §2, §3

[3] = molecular target: T3, TLR4-FLNA complex (Homo sapiens, UniProt P21333); test: Lymphocyte co-immunoprecipitation / Western blot; type: cell-based
T3 construct: To determine the levels of FLNA-α7nAChR, FLNA-TLR4 and α7nAChR-Aβ42 complexes in the lymphocytes; endogenous in cells; host or cells: lymphocytes from venous blood of AD patients and control subjects (ex vivo)
Method: To prepare lymphocytes, 7 ml of venous blood was collected into an EDTA-containing collecting tube or S-monovette (Sarstedt, Newton, N.C.). Collected blood (6 ml) was layered onto 6 ml HISTOPAQUE-1077 (Sigma, St Louis, Mo.) at 25° C. and the entire anti-coagulated blood was centrifuged at 400×g for 30 minutes (25° C.) to yield plasma (top layer) and lymphocytes (opaque interface). The lymphocytes were washed twice by mixing with 6 ml oxygenated Kreb's-Ringer followed by centrifugation at 250×g for 10 minutes and re-suspension. The final pellet was resuspended in 250 μl oxygenated Kreb's-Ringer prior to protein content determination by the Bradford method and assessment of the levels of FLNA-α7nAChR, FLNA-TLR4 and α7nAChR-Aβ42 complexes. To store lymphocytes, the lymphocyte pellet was resuspended in 250 μl ice-cold oxygenated Kreb's-Ringer containing 10% glycerol, and stored at −20° C. for 1 hour before storage at −80° C.
To determine the levels of FLNA-α7nAChR, FLNA-TLR4 and α7nAChR-Aβ42 complexes in the lymphocytes, lymphocytes (50 μg) from control subjects were incubated for 30 minutes at 37° C. in 0.25 ml Kreb's-Ringer without or with 100 nM Aβ 42, and lymphocytes (50 μg) from AD subjects were incubated for 30 minutes at 37° C. in 0.25 ml Kreb's-Ringer. Lymphocytes from control and AD subjects were also simultaneously incubated with or without Compound C0105 (1 nM). […] In the case that frozen lymphocyte samples were used, a lymphocyte suspension was gradually thawed by storing at −20° C. for 1 hour after removal from −80° C. and then at thawed at 4° C.
The incubation was terminated by adding 1 ml ice-cold Ca^2+-free Kreb's-Ringer containing 0.5 mM EGTA/0.1 mM EDTA, protease and phosphatase inhibitors followed by centrifugation. The resultant lymphocyte pellet was homogenized in 0.25 ml ice-cold immunoprecipitation buffer. […]
The results are shown in FIG. 1A and quantified in FIG. 1C. […]

T3 sequence (P21333 2-2647 limits assumed, one chain of several): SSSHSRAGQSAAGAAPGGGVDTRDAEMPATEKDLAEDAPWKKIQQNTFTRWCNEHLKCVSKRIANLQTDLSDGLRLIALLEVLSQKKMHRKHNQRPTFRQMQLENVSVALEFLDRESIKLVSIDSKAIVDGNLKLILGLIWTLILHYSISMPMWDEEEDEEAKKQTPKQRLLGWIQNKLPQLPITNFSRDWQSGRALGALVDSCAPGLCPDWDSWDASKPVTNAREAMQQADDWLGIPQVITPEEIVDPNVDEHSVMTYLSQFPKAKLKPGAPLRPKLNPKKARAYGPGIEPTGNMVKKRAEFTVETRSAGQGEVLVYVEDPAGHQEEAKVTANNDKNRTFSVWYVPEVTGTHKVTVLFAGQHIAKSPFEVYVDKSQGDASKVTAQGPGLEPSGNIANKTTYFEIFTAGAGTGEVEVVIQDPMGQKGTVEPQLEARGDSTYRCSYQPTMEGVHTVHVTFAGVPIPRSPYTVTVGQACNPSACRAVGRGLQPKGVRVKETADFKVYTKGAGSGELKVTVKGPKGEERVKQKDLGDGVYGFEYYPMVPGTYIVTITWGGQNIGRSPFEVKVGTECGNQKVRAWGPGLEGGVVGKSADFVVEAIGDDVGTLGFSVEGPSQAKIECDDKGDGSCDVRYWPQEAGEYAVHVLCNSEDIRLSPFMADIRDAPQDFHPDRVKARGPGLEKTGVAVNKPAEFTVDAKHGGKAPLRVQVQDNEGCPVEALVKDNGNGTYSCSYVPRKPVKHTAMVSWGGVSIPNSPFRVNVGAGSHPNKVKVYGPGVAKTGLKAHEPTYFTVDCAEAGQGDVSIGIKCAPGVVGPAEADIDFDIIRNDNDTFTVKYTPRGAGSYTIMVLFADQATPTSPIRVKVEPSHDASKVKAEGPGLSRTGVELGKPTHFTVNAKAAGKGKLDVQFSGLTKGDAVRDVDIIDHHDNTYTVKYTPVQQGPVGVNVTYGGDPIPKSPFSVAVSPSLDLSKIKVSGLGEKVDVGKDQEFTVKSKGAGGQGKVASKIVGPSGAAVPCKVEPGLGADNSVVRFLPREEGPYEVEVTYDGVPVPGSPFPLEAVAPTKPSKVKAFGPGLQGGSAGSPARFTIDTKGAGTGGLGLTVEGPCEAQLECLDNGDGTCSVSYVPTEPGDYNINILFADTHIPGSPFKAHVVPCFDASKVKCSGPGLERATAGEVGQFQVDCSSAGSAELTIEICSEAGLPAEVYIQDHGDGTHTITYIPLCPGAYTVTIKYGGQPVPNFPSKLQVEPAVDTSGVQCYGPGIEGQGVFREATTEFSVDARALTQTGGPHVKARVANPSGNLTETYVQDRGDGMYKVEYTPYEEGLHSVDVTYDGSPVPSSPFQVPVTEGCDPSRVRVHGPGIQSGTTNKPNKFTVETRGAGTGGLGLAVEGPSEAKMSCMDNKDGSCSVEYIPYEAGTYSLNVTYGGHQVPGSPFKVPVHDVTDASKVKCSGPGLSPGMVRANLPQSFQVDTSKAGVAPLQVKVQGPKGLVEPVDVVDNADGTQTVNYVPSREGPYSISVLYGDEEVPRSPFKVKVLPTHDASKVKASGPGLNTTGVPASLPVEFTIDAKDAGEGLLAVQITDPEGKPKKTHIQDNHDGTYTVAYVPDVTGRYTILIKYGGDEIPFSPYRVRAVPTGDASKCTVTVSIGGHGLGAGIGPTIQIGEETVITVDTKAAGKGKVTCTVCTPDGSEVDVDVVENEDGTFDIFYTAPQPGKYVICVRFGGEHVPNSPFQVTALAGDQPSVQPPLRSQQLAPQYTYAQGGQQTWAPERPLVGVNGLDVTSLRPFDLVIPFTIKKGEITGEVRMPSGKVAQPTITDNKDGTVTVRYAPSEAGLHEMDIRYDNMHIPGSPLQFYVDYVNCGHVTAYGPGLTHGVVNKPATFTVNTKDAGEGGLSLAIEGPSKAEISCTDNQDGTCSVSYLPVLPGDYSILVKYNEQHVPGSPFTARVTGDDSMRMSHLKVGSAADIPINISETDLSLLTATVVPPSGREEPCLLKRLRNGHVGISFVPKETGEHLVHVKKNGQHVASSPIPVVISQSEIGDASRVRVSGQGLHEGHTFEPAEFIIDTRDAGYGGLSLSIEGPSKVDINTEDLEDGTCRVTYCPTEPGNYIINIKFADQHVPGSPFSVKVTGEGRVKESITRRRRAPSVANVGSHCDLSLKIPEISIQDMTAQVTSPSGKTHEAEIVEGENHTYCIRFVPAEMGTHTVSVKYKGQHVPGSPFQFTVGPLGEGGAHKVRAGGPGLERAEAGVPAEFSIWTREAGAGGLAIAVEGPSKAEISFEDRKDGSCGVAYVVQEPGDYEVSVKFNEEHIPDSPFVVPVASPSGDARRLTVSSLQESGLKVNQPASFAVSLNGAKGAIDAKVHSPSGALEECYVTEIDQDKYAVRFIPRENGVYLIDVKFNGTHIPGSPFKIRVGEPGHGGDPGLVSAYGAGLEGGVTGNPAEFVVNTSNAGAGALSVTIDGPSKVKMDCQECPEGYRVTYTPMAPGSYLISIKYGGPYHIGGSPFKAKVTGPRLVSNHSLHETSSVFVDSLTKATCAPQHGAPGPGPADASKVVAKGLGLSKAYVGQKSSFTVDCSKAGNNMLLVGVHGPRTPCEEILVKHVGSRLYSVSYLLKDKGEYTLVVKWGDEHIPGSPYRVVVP

CN1CCC2(CC1)NCC(=O)N2Cc1ccccc1 [Compound C0105]
Effect on elevated TLR4-FLNA complexes in lymphocytes (in words) [1]: robustly normalized | Effect on elevated α7nAChR-FLNA complexes in lymphocytes (in words) [2]: robustly normalized | inhibition at 0.001 µM ([3]; 1 nM C0105, 30 min, lymphocytes of 20 AD subjects, read-out: Reduction of TLR4/FLNA complex level (% inhibition)): ~50% | Effect on amount of TLR4-FLNA complexes (in words), pilot study ([3]; 1 nM C0105, Aβ42-treated control and untreated AD lymphocytes): decreases the amount of TLR4-FLNA complexes | Effect on TLR4/FLNA complex level (in words) ([3]; 1 nM C0105, lymphocytes of 10 YCI controls): no discernible effect
